Data as given in paper PMC9276676, “Difluoromethylornithine (DFMO) and AMXT 1501 inhibit capsule biosynthesis in pneumococci” (Scientific Reports, 2022).
Where two headings read alike, the source gives them in different places.

Legend:
[1] = system: S. pneumoniae serotype 4 (TIGR4); assay: DFMO susceptibility and growth in THY (OD600, MIC); assay type: cell-based, Streptococcus pneumoniae; design: Growthrate: unit not given here
Experimental: (§1) S. pneumoniae serotypes 4 (TIGR4), 2 (D39), 19F (EF3030) and 3 (WU2) were cultured in Todd Hewitt broth supplemented with yeast extract (THY). Supplementation with DFMO ranging from 1.1 to 549 mM was carried out in triplicate in a 96-well plate and incubated at 37 °C and 5% CO2 in a Cytation™ 5 cell imaging multi-mode reader (BioTek, Winooski, VT). The change in optical density at 600 nm (OD600) was measured every hour for 24 h and used to determine the minimum inhibitory concentration (MIC) of DFMO. The optical density data was analyzed using GrowthRates 4.0 software. To determine whether DFMO at sub-MIC is bacteriostatic or lethal to pneumococcal cells, all strains were cultured in the presence or absence of 1/2 MIC DFMO. OD600 was measured every hour and CFU were enumerated on a blood agar plate (BAP) every 2 h over an 8 h incubation period.

[2] = system: S. pneumoniae serotype 2 (D39); assay: DFMO susceptibility and growth in THY (OD600, MIC); assay type: cell-based, Streptococcus pneumoniae; design: Growthrate: unit not given here; conditions: D39
Experimental: as §1

[3] = target: SP_0916 (arginine decarboxylase, ADC) (Streptococcus pneumoniae, UniProt A0A0H2UPK4); assay: Inhibition of decarboxylase activities of recombinant SP_0916 (LC-MS); assay type: biochemical; conditions: 10 mM substrate, 15 min, 37 °C
Sequence of SP_0916 (arginine decarboxylase, ADC) (A0A0H2UPK4 entry or part of it): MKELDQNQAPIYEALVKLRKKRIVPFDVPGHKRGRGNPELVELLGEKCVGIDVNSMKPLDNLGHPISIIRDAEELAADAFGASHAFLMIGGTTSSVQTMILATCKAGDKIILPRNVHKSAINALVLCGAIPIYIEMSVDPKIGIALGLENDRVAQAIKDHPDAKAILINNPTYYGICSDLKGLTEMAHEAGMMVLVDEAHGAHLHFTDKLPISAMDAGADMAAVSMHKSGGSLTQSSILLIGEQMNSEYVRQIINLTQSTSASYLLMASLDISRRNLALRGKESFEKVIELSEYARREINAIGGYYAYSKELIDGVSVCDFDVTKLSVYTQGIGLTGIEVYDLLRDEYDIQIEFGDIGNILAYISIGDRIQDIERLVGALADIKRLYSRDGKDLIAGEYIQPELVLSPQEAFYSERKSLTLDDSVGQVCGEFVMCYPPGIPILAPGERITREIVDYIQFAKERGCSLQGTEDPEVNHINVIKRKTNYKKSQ
From the text: We determined the impact of DFMO (ODC/ADC inhibitor) and α-difluoromethylarginine (DFMA, an ADC inhibitor) on the decarboxylase activities of SP_0916. BL21(DE3) cells expressing recombinant His tag SP_0916 were lysed with B-PER reagent buffer (Thermo Fisher Scientific, Waltham, MA, USA), lysate separated by loading unto HisPur Cobalt Spin Column (Thermo Fisher Scientific, Waltham, MA, USA), desalted using Sephadex G-25 PD-10 column (GE Healthcare, Chicago, IL, USA), and protein concentration estimated using the Pierce BCA Protein Assay kit (Thermo Fisher Scientific, Waltham, MA, USA).
SP_0916-encoded protein (0.926 µmol L^−1) was mixed with 10 mM substrate (arginine, lysine or ornithine) in the reaction mixture (500 µL reaction volume, 50 mM Tris–HCl, pH 8.0) that contains 2.5 mM MgSO4 and 0.6 mM PLP. DFMO was diluted in water to 3–900 mM and added to the reaction mixture after 5 min preincubation at 37 °C in the dark. DFMA stock was made in a similar manner but was diluted in water to 0.3–1000 µM. The enzyme and inhibitor were incubated at 37 °C for 15 min in the dark and the reaction terminated with 0.3 M perchloric acid. After incubation on ice for 15 min, the samples were neutralized with 25 µL of 10 N KOH and extracted with 1 mL of 1-butanol. The organic layer was dried under nitrogen gas and reconstituted with 100 µL of water containing Spermidine-d8 and Glucose-d7 as an internal standard. Analysis of the extracts was performed on a Surveyor LC–MS system. 5 µL of reconstitution was injected to the LC–MS system for detection of the products (agmatine, cadaverine or putrescine). We used internal standards to normalize and determine the peak intensity (area ratio) for each metabolite detected. Enzyme activity without inhibitor is referred to as a control activity. All experiments were performed in triplicate. The concentration of inhibitor that inhibited 50% of the control activity (IC50 value) was determined by varying the concentration of the indicated DFMO or DFMA and measuring the decarboxylase activity. Sigma Plot v. 12 was used to fit the curve through the points and IC50 values were interpolated from the fitted curve.

[4] = design: method as in PMID 30262852; conditions: human ref 35; cited from earlier work

SMILES: NCCC[C@](N)(C(=O)O)C(F)F [DFMO, α-difluoromethylornithine]
- difference in growth rate in presence or absence of DFMO (GrowthRates software) [1]: did not identify any significant differences
- Growthrate ([1]; DFMO 0.2 µg/µL): 0.055
- Max OD ([1]; DFMO 0.2 µg/µL): 1.583
- Growthrate ([1]; DFMO 0.4 µg/µL): 0.056
- Max OD ([1]; DFMO 0.4 µg/µL): 1.619
- Growthrate ([1]; DFMO 0.8 µg/µL): 0.056
- Max OD ([1]; DFMO 0.8 µg/µL): 1.657
- Growthrate ([1]; DFMO 1.6 µg/µL): 0.057
- Max OD ([1]; DFMO 1.6 µg/µL): 1.695
- Growthrate ([1]; DFMO 3.1 µg/µL): 0.056
- Max OD ([1]; DFMO 3.1 µg/µL): 1.654
- Growthrate ([1]; DFMO 6.3 µg/µL): 0.055
- Max OD ([1]; DFMO 6.3 µg/µL): 1.635
- Growthrate ([1]; DFMO 12.5 µg/µL): 0.056
- Max OD ([1]; DFMO 12.5 µg/µL): 1.560
- Growthrate ([1]; DFMO 25.0 µg/µL): 0.052
- Max OD ([1]; DFMO 25.0 µg/µL): 1.280
- Growthrate ([1]; DFMO 50.0 µg/µL): 0.000
- Max OD ([1]; DFMO 50.0 µg/µL): 0.000
- Growthrate ([1]; DFMO 100.0 µg/µL): 0.000
- Max OD ([1]; DFMO 100.0 µg/µL): 0.000
- difference in growth rate in presence or absence of DFMO (GrowthRates software) [2]: did not identify any significant differences
- growth curve versus control ([2]; 1/2 MIC DFMO (137 mM)): longer lag phase and a lower maximal O.D
- Growthrate ([2]; DFMO 0.2 µg/µL): 0.025
- Max OD ([2]; DFMO 0.2 µg/µL): 1.555
- Growthrate ([2]; DFMO 0.4 µg/µL): 0.019
- Max OD ([2]; DFMO 0.4 µg/µL): 1.573
- Growthrate ([2]; DFMO 0.8 µg/µL): 0.018
- Max OD ([2]; DFMO 0.8 µg/µL): 1.615
- Growthrate ([2]; DFMO 1.6 µg/µL): 0.040
- Max OD ([2]; DFMO 1.6 µg/µL): 1.648
- Growthrate ([2]; DFMO 3.1 µg/µL): 0.039
- Max OD ([2]; DFMO 3.1 µg/µL): 1.642
- Growthrate ([2]; DFMO 6.3 µg/µL): 0.037
- Max OD ([2]; DFMO 6.3 µg/µL): 1.647
- Growthrate ([2]; DFMO 12.5 µg/µL): 0.036
- Max OD ([2]; DFMO 12.5 µg/µL): 1.613
- Growthrate ([2]; DFMO 25.0 µg/µL): 0.029
- Max OD ([2]; DFMO 25.0 µg/µL): 0.985
- Growthrate ([2]; DFMO 50.0 µg/µL): 0.000
- Max OD ([2]; DFMO 50.0 µg/µL): 0.000
- Growthrate ([2]; DFMO 100.0 µg/µL): 0.000
- Max OD ([2]; DFMO 100.0 µg/µL): 0.000
- IC50 ([3]; DFMO IC50, ornithine to putrescine): 26.6 ± 4.1 mM
- IC50 ([3]; arginine to agmatine, read-out: DFMO IC50): 75.1 ± 5.5 mM
- IC50 ([3]; lysine to cadaverine, read-out: DFMO IC50): 8.2 ± 0.2 mM
- safe dosage for use in human [4]: around 1.0 g/m^2/day
- safe dosage for use in human, as concentration [4]: 1 to 2 mM
